Assay results taken from US20230125075A1, “Composition Containing Paper Mulberry Extracts” (LG Household & Health Care Ltd., priority 2020, published 2023).
Values joined by “and” are separate entries in the source; they are usually repeats but may differ in a detail not shown here. Equal entries are not always repeated. One block for each compound: values may come before it.

Legend:
Assay type in all cases: cell-based
[1] = system: HepG2 cells; experiment: Cholesterol synthesis in HepG2 cells ([14C] acetate incorporation); settings: for IC50: positive controls, HepG2 cells
Experimental: To confirm the lipid-cholesterol improvement effect of the plant extracts, an appropriate number of HepG2 cells was seeded and cultured using a IMEM culture medium (containing 10% of FCS, 4.5 g/L of glucose, 4 mM glutamine, 10 μg/ml of insulin, 50 μg/ml of penicillin, 50 μg/ml of streptomycin, and 1% of non-essential amino acids). At this time, the culture medium was replaced every 2 days, and the cells were used for the experiment on the 12th day after seeding.
1 ml of a labeled acetate solution ([^14C] sodium acetate) was added to the cells, and the cells were incubated in a CO2 incubator. After 1 hour of incubation, the culture medium was discarded, the cells were washed with ice-cold PBS, 2 M NaOH was added to detach the cells, and the cells were incubated at 95° C. for 1 hour to induce saponification of lipids. Then, [^3H] cholesterol (about 20,000 dpm/sample) was added as a recovery marker, and lipids were extracted with a chloroform-methanol (2:1 (v/v)) solution. Then, after separating lipides through thin layer chromatohrapy (TLC), a band corresponding to free cholesterol was scraped and placed in a scintillation vial for measurement. The results for the above experiment were expressed as the amount of acetate incorporated per protein (acetate (nmole) incorporated/protein (mg)).
In this experimental example, it was confirmed whether the plant extracts inhibit cholesterol synthesis. As a result of the experiment, the amount of cholesterol was quantified. A decrease in cholesterol level means that a cholesterol improvement effect is obtained.
The effect of the test substance on the intracellular cholesterol content was expressed as a relative ratio when the control group (treated with dimethyl sulfoxide (DMSO) only) was 100% or was expressed as the amount incorporated acetate ([^14C]-acetate (nmole) incorporated/4 h/well). As the measured value increases, the amount of synthesized cholesterol increases. That is, a decrease in cholesterol synthesis indicates improvement in cholesterol.

[2] = system: U266 cells; experiment: IgE secretion measurement, ELISA
Experimental: To confirm the anti-allergic effect of the plant extracts, the secretion amount of immunoglobulin E was measured. First, U266 cells were treated with a test substance while culturing the U266 cells in an RPMI1640 culture medium containing 10% FBS for 3 days. After 3 days of treatment with the test substance, the cell culture medium was harvested. IgE capture antibody was added to the plate and left for 1 day. The plate was blocked with 2% BSA. The collected culture medium was added to the plate and mixed by shaking. IgE detection antibody was added to the plate and mixed by shaking. Streptavidin-HRP was added to the plate, and after blocking light, the mixture was shaken. A substrate was added to the plate, and after blocking light, the mixture was mixed by shaking until the color of the mixture changed to blue. After confirming that the color had changed, a 2 N sulfuric acid solution was added to the plate and mixed by shaking until the color changed to yellow. After measuring the absorbance at 450 nm and 570 nm, results were analyzed by subtracting the absorbance at 570 nm from the absorbance at 450 nm. At this time, as a positive control, 1 μM dexamethasone was used, and as a result, an inhibitory effect of 32% was observed. As a result of treatment with 0.1 μM hydrocortisone, an inhibitory effect of 35% was observed.
As a result of the experiment, the amount of IgE was quantified. As the level of IgE decreases, the anti-allergic effect increases.

[3] = system: 3T3-L1 fibroblasts; experiment: Glycerol content in culture medium of 3T3-L1 fibroblasts (lipolysis); settings: positive control
Experimental: To confirm the anti-obesity effect of the plant extracts, the content of glycerol in the culture medium of 3T3-L1 fibroblasts was measured.
First, 3T3-L1 fibroblasts were cultured using a DMEM culture medium (proliferation culture medium) containing 10% bovine serum to an appropriate cell number on a plate. Then, using a DMEM culture medium (differentiation culture medium) containing 10% FBS, the cells were cultured until the plate was filled with the cells, and then were further cultured for 2 to 3 days. The existing culture medium was replaced with a culture medium to induce cell differentiation, which contains insulin (5 μg/mL), dexamethasone (0.25 μM), and 3-isobutyl-1-methylxanthine (0.5 mM), and was followed by incubation for 2 to 3 days. Afterwards, the culture medium was replaced with a medium containing only insulin and the cells were incubated for 2 to 3 days, and then the culture medium was replaced again with a DMEM culture medium containing 10% FBS and the cells were again incubated for 6 to 8 days (incubated until a point at which fat accumulation is observed in the cells). The anti-obesity substance was added before or after differentiation induction according to the purpose of the experiment. The cell culture medium was centrifuged at 10,000 rpm for 10 minutes, and the supernatant was obtained using a Pasteur pipette. The obtained supernatant was transferred to a plate and heated at 65° C. for 8 min to inactivate enzymes released from the cells. Next, a glycerol probe was dissolved in 220 μl of DMSO, and a glycerol enzyme mixture (Cayman Chemical, USA; Item No. 10010962) was dissolved in an assay buffer. These solutions were shielded from light and stored at −20° C. until experiment was performed. A 1 mM glycerol standard solution was prepared by diluting 10 μl of a glycerol standard solution with 990 μl of an analysis buffer. Then, the 1 mM glycerol standard solution was thoroughly mixed, 0, 2, 4, 6, 8, and 10 μl of the 1 Mm glycerol standard solution were respectively added to each well, and the analysis buffer was added to the each well to adjust the total volume to 50 μl. 50 μl of the sample (culture medium in which enzymes are inactivated) was added to each well. A reaction mixture containing 46 μl of the analysis buffer, 2 μl of the glycerol probe, and 2 μl of the glycerol enzyme mixture was prepared. 50 μl of the reaction mixture was added to each well containing the standard solution and the sample and was thoroughly mixed. Then, each well was shielded from light and left at room temperature for 30 minutes. Then, absorbance was measured at 570 nm.
As a result of the experiment, the amount of glycerol was quantified. Glycerol is a by-product of lipolysis. Accordingly, as the level of glycerol increases, an anti-obesity effect increases.
When lipolysis is enhanced by the test substance, the amount of triglycerides accumulated in adipocytes decreases and the amount of glycerol released increases. Accordingly, an increase in the amount of released glycerol means an increase in decomposition of triglycerides. Through this experiment, it can be confirmed that the test substance has an anti-obesity effect.

[4] = system: C2C12 cells; experiment: Glucose uptake measurement (2-NBDG method, FACS); settings: positive control
Experimental: To confirm the blood glucose control effect of the plant extracts, the glucose uptake capacity of cells treated with the plant extracts was measured. First, C2C12 cells were seeded on a 96-well culture plate at a cell density of 1×10^4 cells/well. When a state of subconfluence was reached, which is within 24 hours, the experiment was started.
When saturated, the culture medium was removed, and 100 μl of a fresh medium containing 10 μM 2-NBDG or 100 μl of a fresh medium not containing 10 μM 2-NBDG (control) was added to each well. At this time, a test substance to be evaluated was included in the culture medium. That is, the cells were treated with the test substance by changing the culture medium. After treatment for 1 hour, wells were washed 2 times with pre-cold PBS. Then, cells in each well were collected and resuspended in 200 μl of a pre-cold medium, and the nuclei of the cells were stained with 1 μg/mL of propidium iodine (PI).
Measurement was performed with FACS for about 20 seconds. Event results of about 2,000 single cells were collected, and statistical analysis was performed on the event results.
In this experiment, it was determined whether the plant extracts promote intracellular glucose uptake. As a result of the experiment, the amount of glucose uptake into cells was quantified. That is, an increase in glucose uptake into cells means that the blood glucose control effect is improved.
As the value of measured fluorescence intensity increases, the glucose absorption rate increases. An increase in glucose absorption indicates a decrease in blood glucose levels.

[5] = system: HUVEC cells; experiment: Recovery of reduction in nitric oxide induced by oxLDL (Griess reagent); settings: positive control
Experimental: To confirm the blood circulation improvement effect of the plant extracts, recovery of reduction in nitric oxide induced by oxidized low density lipoprotein (oxLDL) was measured. First, HUVEC cells were suspended in a Ham's F-12K (Kaighn's modification) culture medium, and the suspended cells were aliquoted into a culture plate. Then, plant extracts (samples) diluted at various concentrations were added to the culture plate containing the cells. At this time, […]. The sample-treated cells were placed in a 5% CO2 incubator set at 37° C. and cultured for 24 to 48 hours, and then the supernatant was taken and used as an analysis sample.
To analyze nitric oxide, a Griess reagent was prepared by mixing equal amounts of component A and component B. Then, 250 μl of the sample (culture medium) and 50 μl of the Griess reagent were added to a plate and mixed thoroughly. Next, to prepare a sodium nitrite solution, a nitrite standard solution was diluted with distilled water to a concentration between […] (reference sample). Under light-blocked conditions, a mixture of the sample and the Griess reagent was incubated at room temperature for 30 minutes. Thereafter, the absorbance (OD) of the nitrite-containing sample with respect to the reference sample was measured at 548 nm.
In this experiment, it was confirmed whether the level of nitric oxide decreased by oxLDL was recovered by the plant extracts. At this time, as a result of the experiment, the amount of nitric oxide was quantified. Nitric oxide plays a role in dilating blood vessels.

IC50 ([1]; Homo sapiens): 70.4 nM
SMILES: CC(C)c1c(C(=O)Nc2ccccc2)c(-c2ccccc2)c(-c2ccc(F)cc2)n1CC[C@@H](O)C[C@@H](O)CC(=O)O [Atorvastatin]
activity at 0.0704 µM ([1]; Homo sapiens, HepG2, positive control, 70.4 nM, read-out: Lipid-cholesterol synthesis (% of control)): 50%
Lipid-cholesterol synthesis ([1]; positive control, 70.4 nM): 50.00 % of control
Lipid-cholesterol synthesis (% of control) ([1]; positive control, 70.4 nM): 50.00 (Atorvastatin % of control
Lipid-cholesterol synthesis (% of control) ([1]; positive control, 70.4 nM, 0.0704 µM): 50.00 (Atorvastatin % of control
Lipid-cholesterol synthesis ([1]; positive control, Atorvastatin 70.4 nM): 50.00 % of control

SMILES: C[C@@H]1C[C@H]2[C@@H]3CCC4=CC(=O)C=C[C@]4(C)[C@@]3(F)[C@@H](O)C[C@]2(C)[C@@]1(O)C(=O)CO [Dexamethasone]
activity at 1 µM ([2]; Homo sapiens, U-266, positive control, 1 uM, read-out: Anti-allergy-IgE secretion (% of control)): 67.3%
inhibition at 1 µM ([2]; Homo sapiens, U-266, positive control, 1 μM, read-out: inhibitory effect on IgE secretion): 32%
Anti-allergy-IgE secretion ([2]; positive control, 1 uM): 67.27 % of control
Anti-allergy-IgE secretion (% of control) ([2]; positive control, 1 uM): 67.27 (Dexamethasone % of control
Anti-allergy-IgE secretion ([2]; positive control, Dexamethasone 1 uM): 67.27 % of control

SMILES: CC(C)NCC(O)c1ccc(O)c(O)c1 (centres unmarked) [Isoproterenol]
activity at 10 µM ([3]; Mus musculus, 3T3-L1, 10 μM, read-out: Anti-obesity-Glycerol Conc. (% of control)): 872%
Anti-obesity-Glycerol Conc. ([3]; 10 pM): 872.36 % of control
Anti-obesity-Glycerol Conc. ([3]; 10 μM): 872.36 % of control
Anti-obesity-Glycerol Conc. (% of control) ([3]; 10 μM): 872.36 (Isoproterenol % of control
Anti-obesity-Glycerol Conc. ([3]; Isoproterenol 10 μM): 872.36 % of control

SMILES: CN(C)C(=N)N=C(N)N [Metformin]
activity at 1000 µM ([4]; Mus musculus, C2C12, 1 mM, read-out: Blood glucose-Glucose absorption (% of control)): 184%
Blood glucose-Glucose absorption ([4]; 1 mM): 183.77 % of control
Blood glucose-Glucose absorption (% of control) ([4]; 1 mM): 183.77 (Metformin % of control
increase effect on glucose uptake ([4]; 1 mM): 180%
Blood glucose-Glucose absorption ([4]; Metformin 1 mM): 183.77 % of control

SMILES: CC(C)c1nc(N(C)S(C)(=O)=O)nc(-c2ccc(F)cc2)c1/C=C/[C@@H](O)C[C@@H](O)CC(=O)O [Rosuvastatin]
recovery of nitric oxide reduced by oxLDL ([5]; 0.1 μM): 100%
Blood circulation-NO Conc. ([5]; 0.05 ppm): 98.29 % of control
Blood circulation-NO Conc. (% of control) ([5]; 0.05 ppm): 98.29 % of control and 98.29 (Rosuvastatin % of control
Blood circulation-NO Conc. ([5]; Rosuvastatin 0.05 ppm): 98.29 % of control
Blood circulation-NO Conc. (% of control) ([5]; Rosuvastatin 0.05 ppm): 98.29 % of control

SMILES: C[C@]12CCC(=O)C=C1CC[C@@H]1[C@@H]2[C@@H](O)C[C@@]2(C)[C@H]1CC[C@]2(O)C(=O)CO [hydrocortisone]
inhibition at 0.1 µM ([2]; Homo sapiens, U-266, 0.1 μM, read-out: inhibitory effect on IgE secretion): 35%

SMILES: CCCCCCCCCCC[C@@H](C[C@@H]1OC(=O)[C@H]1CCCCCC)OC(=O)[C@H](CC(C)C)NC=O [orlistat]
increase of glycerol compared to the negative control group ([3]; 0.5 ppm): 160%

IC50 ([1]; Homo sapiens): 31.8 nM
SMILES: CCC(C)(C)C(=O)O[C@H]1C[C@@H](C)C=C2C=C[C@H](C)[C@H](CC[C@@H]3C[C@@H](O)CC(=O)O3)[C@H]21 [simvastatin]
